{
  "source": "patent US12064420B2",
  "about": "“Tie-2 activators targeting the Schlemm's canal” (EyePoint Pharmaceuticals, Inc., priority 2019, dated 2024)",
  "key": {"C57B16 mice": {"system": "C57B16 mice", "experiment": "Schlemm's canal area in mice (PECAM-1 staining)", "assay_type": "in vivo, mouse", "conditions": "4% eye drops (5 μL) BID for 4 weeks, 4-week old mice", "experimental": "Prior to application of eye drops, mice were anaesthetized using an isoflurane evaporator. Whole mounts of corneas were stained for PECAM-1 (FIG. 6A) and SC areas were measured (FIG. 6B). As depicted in FIG. 6A, 20× fields shown represent an area of […]. Images were captured as Z stacks with a step size of 0.89 μm and a pinhole of 1 airy unit, and are shown as maximum intensity projections. For quantification (FIG. 6B), SC area was measured in sixteen 20× images per condition for 4 eyes of 2 mice; *p≤0.05. Treatment with Compound 1 enhanced SC area by about 12.2% (±4.7%; p=0.022) with topical ocular Compound 1 treatment compared to vehicle."}, "[1]": {"system": "ocular normotensive patients", "experiment": "Phase 1B multiple-ascending dose study of Compound 1 ophthalmic solution, IOP", "assay_type": "in vivo, human", "conditions": "for mean diurnal IOP reduction in the study eye, relative to the 15 mg/mL dose: ANCOVA model", "experimental": "A multi-center, double-masked, randomized, placebo-controlled, multiple-ascending dose (MAD) cohort study in up to 48 ocular normotensive patients was conducted. For subjects in cohort 1, IOP was between 12 mmHg and 23 mmHg (inclusive) in both eyes on Day −1. Cohorts 2-4 were limited to subjects with pre-treatment IOP≥16 mmHg and ≤23 mmHg in at least one eye and ≤23 mmHg in both eyes at all timepoints on two separate days of IOP assessment during screening. Subjects who received additional carbonic-anhydrase inhibiting drops or cholinergic agonist drops were washed-out for at least 7 days prior to Day −1.\nOn Day −1 (day before first day of dosing), day 1, and day 7, for all cohorts, a baseline diurnal time point assessment of IOP in both eyes occurred at pre-dose, and 2, 4, and 8 hours post-dose relative to the planned dosing time the following day.\nFor cohort 1, on the morning of day 1 and day 2, all subjects were administered a single dose (one drop of approximately 30 μL of the dosing solution (Compound 1 or placebo) corresponding to the respective dose level) into the right eye only. If no AEs related to the investigational medicinal product (IMP) that represented a cause for concern were observed, then treatment was administered to both eyes once daily on the mornings of days 3 to 7. For all subsequent cohorts, dose administration was to both eyes on all 7 days (except cohort 4, in which treatment was administered in both eyes twice daily (AM and PM) on days 1-6 with a final single dose in both eyes on the morning of day 7).\nDiurnal time point assessments of IOP were performed on day 1 and day 7 in both eyes at pre-dose, and 2, 4, and 8 hours post-dose in all cohorts.\nThe Compound 1 ophthalmic solution used for the trial was formulated as a sterile unpreserved solution of Compound 1 (0.5% w/v to 4.0% w/v, or 5 mg/mL to 40 mg/mL; as the sodium salt) in a vehicle containing 15% w/v HPβCD and 1% w/v mannitol and adjusted to a pH of 6.5-7.5 with 1N Hydrochloric Acid and/or 1N Sodium Hydroxide. The solution was filtered through sterile 0.22-μm filters, and 0.5 mL was aseptically filled into single-use sterile dose administration bottles suitable for ophthalmic delivery. Placebo was the same as the vehicle for the Compound 1 ophthalmic solution. Compound 1 was stored at United States Pharmacopeia (USP) controlled room temperature."}, "Tie-2": {"system": "Tie-2", "experiment": "Tie-2 phosphorylation in Schlemm's canal, whole mount immunofluorescence", "assay_type": "in vivo, mouse", "conditions": "1 hour after single topical ocular administration of 4% eye drops", "experimental": "VE-PTP expression was assessed in the endothelium of SC in VE-PTP knock-in reporter mice expressing a nuclear-localizing β-galactosidase from the endogenous VE-PTP promoter (VE-PTP+/mut). C57BL/6JRj mice were also used in the experiments as control animals. Mice were anaesthetized using ketamine (125 mg/kg) and xylazine (12.5 mg/kg). 10 μL of Compound 1 eye drop solution (4% Compound 1) or vehicle was applied to each eye. Mice were euthanized 1 hour following dosing, and the eyes were processed for immunofluorescence analysis to detect Tie-2 phosphorylation. […]\nTo evaluate VE-PTP mediated signaling, tyrosine phosphorylation and activation of Tie-2 in SC following VE-PTP inhibition was assessed one hour following a single topical ocular administration of Compound 1. […]"}},
  "data": [
    {"molecule": "COC(=O)N[C@@H](Cc1ccccc1)C(=O)N[C@@H](Cc1ccc(NS(=O)(=O)O)cc1)c1csc(-c2cccs2)n1", "note": "[Compound 1, 4-{(S)-2-[(S)-2-(Methoxycarbonylamino)-3-phenylpropanamido]-2-[2-(thiophen-2-yl)thiazol-4-yl]ethyl}phenylsulfamic acid]", "values": [
      {"measurement": "enhancement of Schlemm's canal area compared to vehicle", "setting": "C57B16 mice", "result": "about 12.2%"},
      {"measurement": "mean diurnal IOP reduction in the study eye, relative to the 15 mg/mL dose", "setting": "[1]; 40 mg/mL BID topical", "result": "−2.24", "unit": "mmHg"},
      {"measurement": "mean diurnal IOP reduction in the study eye, relative to the 15 mg/mL dose", "setting": "[1]; 40 mg/mL QD topical", "result": "−1.93", "unit": "mmHg"},
      {"measurement": "IOP on day 7 at the 0-hour, pre-dose time point", "setting": "[1]; 40 mg/ml dose, 12 hours after the previous dose", "result": "persistent TOP reduction"},
      {"measurement": "IOP change from baseline at 2, 4, and 8 hours post-dose", "setting": "[1]; 40 mg/ml dose, days 1 and 7", "result": "significant TOP reductions from baseline"},
      {"measurement": "staining of Schlemm's canal for tyrosine phosphorylated Tie-2 (pY992-Tie-2)", "setting": "Tie-2", "result": "enhanced"}
    ]}
  ]
}
